According to DBAASP:
Converted amounts (≈) assume the structure as drawn. “And” between values parts separate entries of the source, which are not always exact repeats. Equal values may be shown once.

What was measured:
Test in all cases: ≥ marks a high value that may be exact or a test limit, other limits are often not marked, values filed in µg/mL are converted to µM
[1] = test system: Candida albicans F7-39/IDE99
[2] = test system: Staphylococcus aureus PCM 2054
[3] = test system: Candida parapsilosis CCM 8260
Pseudomonas aeruginosa = test system: Pseudomonas aeruginosa
Escherichia coli B = test system: Escherichia coli B
[4] = test system: Escherichia coli PCM 2057
Candida krusei CCM 8271 = test system: Candida krusei CCM 8271
[5] = test system: Staphylococcus epidermidis PCM 521
[6] = test system: Staphylococcus aureus PMC 1650
Bacillus subtilis 168 = test system: Bacillus subtilis 168
[7] = test system: Staphylococcus epidermidis PCM 2118
[8] = test system: Candida glabrata CCM 8270
Staphylococcus aureus = test system: Staphylococcus aureus
[9] = test system: Candida albicans ATCC 90028
[10] = test system: Salmonella enterica subsp. enterica serovar Enteritidis
Micrococcus luteus = test system: Micrococcus luteus
[11] = test system: Pseudomonas aeruginosa ATCC 9027
Listeria innocua = test system: Listeria innocua
Escherichia coli = test system: Escherichia coli
[12] = test system: Staphylococcus aureus USA 300
[13] = test system: Staphylococcus aureus USA 100
[14] = test system: Pseudomonas aeruginosa LES400
[15] = test system: Staphylococcus aureus C623
[16] = test system: Pseudomonas aeruginosa H103
[17] = test system: Enterococcus faecium mic80
[18] = test system: Pseudomonas aeruginosa 213
Candida albicans C627 = test system: Candida albicans C627
[19] = test system: Escherichia coli ESBL 63103
[20] = test system: Staphylococcus aureus ATCC 25923
Bacillus pumilus = test system: Bacillus pumilus
[21] = test system: Staphylococcus aureus ATCC 2592
[22] = test system: Candida albicans ATCC 2002
Shigella dysenteriae = test system: Shigella dysenteriae
[23] = test system: Escherichia coli ATCC 25922
[24] = test system: Acinetobacter calcoaceticus
Bacillus cereus = test system: Bacillus cereus
Escherichia coli AS1.349 = test system: Escherichia coli AS1.349
Lactococcus lactis = test system: Lactococcus lactis
Candida albicans = test system: Candida albicans
[25] = test system: Staphylococcus aureus AS1.72
[26] = test system: Pseudomonas aeruginosa CMCCB 10104
[27] = test system: Staphylococcus aureus ATCC 29213
Bacillus cereus AS1.126 = test system: Bacillus cereus AS1.126
[28] = test system: Lactococcus lactis AS1.1690
[29] = test system: Enterococcus faecalis CGMCC 1.595
[30] = test system: Pseudomonas aeruginosa CGMCC 1.860
[31] = test system: Enterococcus faecium CGMCC 1.2334

## CC[C@H](C)[C@H](NC(=O)[C@H](CCCCN)NC(=O)CNC(=O)[C@H](CC(C)C)NC(=O)[C@@H](NC(=O)[C@H](CCCCN)NC(=O)[C@H](CCCCN)NC(=O)[C@H](Cc1c[nH]c2ccccc12)NC(=O)[C@H](CC(N)=O)NC(=O)[C@@H](N)C(C)C)C(C)C)C(=O)N[C@H](C(=O)N[C@@H](CCCCN)C(=O)N[C@H](C(=O)N[C@@H](C)C(=O)N[C@@H](CCCCN)C(N)=O)C(C)C)[C@@H](C)CC [VNWKKVLGKIIKVAK]
[1]
  MIC: 9.1 µM (≈ 15.7 µg/mL)
[2]
  MIC: 29 µM (≈ 50 µg/mL)
[3]
  MIC: 29 µM (≈ 50 µg/mL)
Pseudomonas aeruginosa
  MIC: 15.8 µM (≈ 27.2 µg/mL)
Escherichia coli B
  MIC: 1.7 µM (≈ 2.93 µg/mL)
[4]
  MIC: 7.25 µM (≈ 12.5 µg/mL)
Candida krusei CCM 8271
  MIC: 29 µM (≈ 50 µg/mL)
[5]
  MIC: 7.25 µM (≈ 12.5 µg/mL)
[6]
  MIC: 14.5 µM (≈ 25 µg/mL)
Bacillus subtilis 168
  MIC: 0.8 µM (≈ 1.38 µg/mL)
[7]
  MIC: 3.62 µM (≈ 6.25 µg/mL)
[8]
  MIC: 29 µM (≈ 50 µg/mL)
Staphylococcus aureus
  MIC: 14.3 µM (≈ 24.6 µg/mL)

## NCCCCC(N)C(=O)NC(Cc1ccc(O)cc1)C(=O)NC(CCCN=C(N)N)C(=O)O (stereo not given) [KYR]
[9]
  MIC: ≥ 100 µM
[10]
  MIC: 1 µM (≈ 0.466 µg/mL)
Micrococcus luteus
  MIC: 2 µM (≈ 0.931 µg/mL)
[11]
  MIC: > 100 µM
Listeria innocua
  MIC: 1 µM (≈ 0.466 µg/mL)
Escherichia coli
  MIC: 1 µM (≈ 0.466 µg/mL)
[12]
  MIC: ≥ 100 µM
Staphylococcus aureus
  MIC: 1 µM (≈ 0.466 µg/mL)
[13]
  MIC: ≥ 100 µM

## CC[C@H](C)[C@H](NC(=O)[C@H](CCCCN)NC(=O)[C@H](Cc1c[nH]c2ccccc12)NC(=O)[C@@H](NC(=O)[C@@H](N)CCCN=C(N)N)[C@@H](C)CC)C(=O)N[C@@H](Cc1c[nH]c2ccccc12)C(=O)N[C@@H](Cc1c[nH]c2ccccc12)C(=O)N[C@@H](CCCCN)C(=O)N[C@@H](CCCN=C(N)N)C(=O)O [RIWKIWWKR]
[14]
  MIC: ≥ 93.3 µM
[15]
  MIC: ≥ 46.7 µM
[16]
  MIC: ≥ 46.7 µM
[17]
  MIC: 23.3 µM (≈ 32 µg/mL)
[18]
  MIC: ≥ 93.3 µM
Candida albicans C627
  MIC: 5.83 µM (≈ 8 µg/mL)
[19]
  MIC: ≥ 46.7 µM
[20]
  MIC: 93.3 µM (≈ 128 µg/mL)

## CC[C@H](C)[C@H](NC(=O)CN)C(=O)N[C@@H](Cc1ccccc1)C(=O)N[C@@H](CO)C(=O)N[C@@H](CC(C)C)C(=O)N[C@H](C(=O)N[C@@H](CCCCN)C(=O)N[C@H](C(=O)N[C@@H](C)C(=O)N[C@@H](C)C(=O)N[C@@H](CCCCN)C(=O)N[C@@H](Cc1ccccc1)C(=O)N[C@H](C(=O)NCC(=O)N[C@@H](CCCCN)C(=O)N[C@@H](CC(N)=O)C(=O)N[C@@H](CC(C)C)C(=O)N[C@@H](CC(C)C)C(=O)N[C@@H](CCCCN)C(=O)N[C@@H](CCC(N)=O)C(=O)N[C@@H](C)C(=O)NCC(=O)N[C@@H](CCCCN)C(=O)N[C@@H](C)C(=O)NCC(=O)N[C@H](C(=O)N[C@@H](CCC(=O)O)C(=O)N[C@@H](Cc1cnc[nH]1)C(=O)N[C@@H](CC(C)C)C(=O)N[C@@H](C)C(=O)N[C@H]1CSSC[C@@H](C(=O)O)NC(=O)[C@H](CCC(N)=O)NC(=O)[C@H](CC(N)=O)NC(=O)[C@H](CC(N)=O)NC(=O)[C@H](C)NC(=O)[C@H](CCCCN)NC1=O)C(C)C)C(C)C)[C@@H](C)O)[C@@H](C)CC [GIFSLIKTAAKFVGKNLLKQAGKAGVEHLACKANNQC]
Pseudomonas aeruginosa
  MIC: 12.9 µM (≈ 50 µg/mL)
Bacillus pumilus
  MIC: 0.646 µM (≈ 2.5 µg/mL)
[21]
  MIC: 0.323 µM (≈ 1.25 µg/mL)
[22]
  MIC: 0.646 µM (≈ 2.5 µg/mL)
Shigella dysenteriae
  MIC: 1.94 µM (≈ 7.5 µg/mL)
[23]
  MIC: 3.23 µM (≈ 12.5 µg/mL)
[24]
  MIC: 3.23 µM (≈ 12.5 µg/mL)
Bacillus cereus
  MIC: 1.94 µM (≈ 7.5 µg/mL)

## CC[C@H](C)[C@H](NC(=O)[C@@H]1CCCN1C(=O)[C@H](Cc1ccccc1)NC(=O)[C@@H](N)Cc1ccccc1)C(=O)N[C@H](C(=O)NCC(=O)N[C@@H](CCCCN)C(=O)N[C@@H](CC(C)C)C(=O)N[C@@H](CC(C)C)C(=O)N[C@@H](CO)C(=O)NCC(=O)N[C@@H](CC(C)C)C(=O)N[C@@H](CO)C(=O)NCC(=O)N[C@@H](CC(C)C)C(=O)N[C@@H](CC(C)C)C(N)=O)C(C)C [FFPIVGKLLSGLSGLL]
Pseudomonas aeruginosa
  MIC: 3.01 µM (≈ 5 µg/mL)
Bacillus pumilus
  MIC: 3.01 µM (≈ 5 µg/mL)
[21]
  MIC: 1.51 µM (≈ 2.5 µg/mL)
[22]
  MIC: 1.51 µM (≈ 2.5 µg/mL)
Shigella dysenteriae
  MIC: 3.01 µM (≈ 5 µg/mL)
[23]
  MIC: 1.51 µM (≈ 2.5 µg/mL)
[24]
  MIC: 18.1 µM (≈ 30 µg/mL)
Bacillus cereus
  MIC: 18.1 µM (≈ 30 µg/mL)

## CC(C)C[C@H](NC(=O)[C@H](CC(C)C)NC(=O)CNC(=O)[C@H](Cc1ccccc1)NC(=O)[C@H](CCCN=C(N)N)NC(=O)[C@H](CC(C)C)NC(=O)[C@H](CCCCN)NC(=O)[C@H](CCCCN)NC(=O)[C@H](CC(C)C)NC(=O)[C@@H]1CCCN1C(=O)[C@H](CC(C)C)NC(=O)[C@@H](N)Cc1ccccc1)C(N)=O [FLPLKKLRFGLL]
Pseudomonas aeruginosa
  MIC: 12.5 µM (≈ 18 µg/mL)
Escherichia coli AS1.349
  MIC: 12.5 µM (≈ 18 µg/mL)
Lactococcus lactis
  MIC: 3.13 µM (≈ 4.52 µg/mL)
Candida albicans
  MIC: 6.25 µM (≈ 9.02 µg/mL)
Bacillus cereus
  MIC: 3.13 µM (≈ 4.52 µg/mL)
[25]
  MIC: 3.13 µM (≈ 4.52 µg/mL)

## CC[C@H](C)[C@H](NC(=O)[C@H](CCCCN)NC(=O)[C@H](CCCCN)NC(=O)CNC(=O)[C@@H](NC(=O)CNC(=O)[C@H](CC(C)C)NC(=O)[C@@H](NC(=O)CNC(=O)[C@H](CO)NC(=O)[C@H](CC(C)C)NC(=O)[C@H](CC(C)C)NC(=O)CN)C(C)C)C(C)C)C(=O)N[C@H](C(=O)N[C@H]1CSSC[C@@H](C(=O)O)NC(=O)[C@H](CC(C)C)NC(=O)CNC(=O)[C@H](CO)NC(=O)[C@H](CC(C)C)NC(=O)CNC1=O)C(C)C [GLLSGVLGVGKKIVCGLSGLC]
[26]
  MIC: 5.27 µM (≈ 10.4 µg/mL)
[10]
  MIC: ≥ 64.9 µM
[22]
  MIC: 2.63 µM (≈ 5.19 µg/mL)
[23]
  MIC: 2.63 µM and 5.73 µM
[27]
  MIC: 11.5 µM (≈ 22.6 µg/mL)
[20]
  MIC: 5.27 µM (≈ 10.4 µg/mL)

## CC(C)[C@H](N)C(=O)N[C@@H](Cc1c[nH]c2ccccc12)C(=O)N[C@@H](CCCN=C(N)N)C(=O)N[C@@H](CCCCN)C(=O)N[C@@H](Cc1c[nH]c2ccccc12)C(=O)N[C@@H](CCCN=C(N)N)C(=O)N[C@@H](CCCN=C(N)N)C(=O)N[C@@H](Cc1ccccc1)C(=O)N[C@@H](Cc1c[nH]c2ccccc12)C(=O)N[C@@H](CCCCN)C(=O)N[C@@H](CCCN=C(N)N)C(=O)O [VWRKWRRFWKR]
Escherichia coli AS1.349
  MIC: 3.13 µM (≈ 5.33 µg/mL)
Bacillus cereus AS1.126
  MIC: 3.13 µM (≈ 5.33 µg/mL)
[28]
  MIC: 6.25 µM (≈ 10.7 µg/mL)
[29]
  MIC: 6.25 µM (≈ 10.7 µg/mL)
[30]
  MIC: 1.56 µM (≈ 2.66 µg/mL)
[31]
  MIC: 6.25 µM (≈ 10.7 µg/mL)
[25]
  MIC: 6.25 µM (≈ 10.7 µg/mL)
